Our source for the EC50, AUC(0-t) and Cmax values is patent US9815791B2, “Alkylpyrazolyl guanidine F1F0-ATPase inhibitors and therapeutic uses thereof” (Lycera Corporation, priority 2013, dated 2017).

The first series deals with Ramos cells. Put plainly: Cytotoxicity in Ramos cells. As to conditions: Homo sapiens, read-out: Ramos Cell EC50. In kind it is cell-based. The method, then:
Exemplary compounds described in above Examples were tested for activity against F1F0-ATPase by measuring the ability of the compounds to inhibit ATP synthesis. In addition, the compounds were assessed for cytotoxicity in Ramos cells. Inhibition of F1F0-ATPase activity in synthesizing ATP and cytotoxicity in Ramos cells were measured according to the procedures described in K. M. Johnson et al. Chemistry & Biology 2005, 12, 485-496.
For the compound `Cc1c(N/C(=N\C(=O)c2ccc(F)c(F)c2)Nc2cc(F)cc(Cl)c2)n[nH]c1C(F)(F)F` [Compound 1, N-(((3-Chloro-5-fluorophenyl)amino)((4-methyl-5-(trifluoromethyl)-1H-pyrazol-3-yl)amino)methylene)-3,4-difluorobenzamide], the EC50 is under 10 µM.

With `Cc1c(N/C(=N\C(=O)c2cccc(Cl)c2)Nc2cc(F)cc(Cl)c2)n[nH]c1C(F)(F)F` [Compound A-1], the EC50 is under 10 µM.

As for `COc1ccc(C(=O)N=C(Nc2cc(F)cc(Cl)c2)Nc2n[nH]c(C(F)(F)F)c2C)cc1` [Compound A-2], the EC50 was under 10 µM.

Consider `Cc1c(NC(=NC(=O)c2cccc(Cl)c2)Nc2cccc(Cl)c2)n[nH]c1C(F)(F)F` [Compound A-7], for which the EC50 was under 10 µM.

Regarding `Cc1c(NC(=NC(=O)c2ccc(Cl)cc2Cl)Nc2cccc(C(F)(F)F)c2)n[nH]c1C(F)(F)F` [Compound A-8], the EC50 was under 10 µM.

Consider `Cc1c(NC(=NC(=O)c2ccc(Cl)cc2Cl)Nc2cccc(Cl)c2)n[nH]c1C(F)(F)F` [Compound A-9], for which the EC50 is under 10 µM.

On to `COc1ccc(C(=O)N=C(Nc2cccc(Cl)c2)Nc2n[nH]c(C(F)(F)F)c2C)cc1` [Compound A-10], for which the EC50 is under 10 µM.

Regarding `Cc1c(C(F)(F)F)n[nH]c1NC(=NC(=O)c1ccc(Cl)cc1Cl)Nc1cc(F)cc(Cl)c1` [Compound A-11], the EC50 was under 10 µM.

With `CCn1nc(C(F)(F)F)c(C)c1N/C(=N\C(=O)c1ccc(Cl)cc1Cl)Nc1cc(F)cc(Cl)c1` [Compound A-12], the EC50 was under 10 µM.

For `CCn1nc(C(F)(F)F)c(C)c1N/C(=N\C(=O)c1ccc(Cl)cc1Cl)Nc1cccc(C(F)(F)F)c1` [Compound A-13], the EC50 was under 10 µM.

On to `CCn1nc(C(F)(F)F)c(C)c1N/C(=N\C(=O)c1ccc(OC)cc1)Nc1cc(F)cc(Cl)c1` [Compound A-14], for which the EC50 was under 10 µM.

Consider `CCn1nc(C(F)(F)F)c(C)c1N/C(=N\C(=O)c1ccc(OC)cc1)Nc1cccc(C(F)(F)F)c1` [Compound A-15], for which the EC50 is under 10 µM.

On to `CCn1nc(C(F)(F)F)c(C)c1N/C(=N\C(=O)c1ccc(OC)cc1)Nc1cccc(Cl)c1` [Compound A-16], for which the EC50 was under 10 µM.

Consider `CCn1nc(C(F)(F)F)c(C)c1N/C(=N\C(=O)c1cccc(Cl)c1)Nc1cc(F)cc(Cl)c1` [Compound A-17], for which the EC50 is under 10 µM.

Turning to `CCn1nc(C(F)(F)F)c(C)c1N/C(=N\C(=O)c1cccc(Cl)c1)Nc1cccc(C(F)(F)F)c1` [Compound A-18], the EC50 is under 10 µM.

For `CCn1nc(C(F)(F)F)c(C)c1N/C(=N\C(=O)c1cccc(Cl)c1)Nc1cccc(Cl)c1` [Compound A-19], the EC50 is under 10 µM.

Consider `CCn1nc(C(F)(F)F)c(C)c1N/C(=N\C(=O)c1ccc(F)c(F)c1)Nc1cc(F)cc(Cl)c1` [Compound A-20], for which the EC50 is under 10 µM.

With `CCn1nc(C(F)(F)F)c(C)c1N/C(=N\C(=O)c1ccc(F)c(F)c1)Nc1cccc(C(F)(F)F)c1` [Compound A-21], the EC50 was under 10 µM.

With `CCn1nc(C(F)(F)F)c(C)c1N/C(=N\C(=O)c1ccc(F)c(F)c1)Nc1cccc(Cl)c1` [Compound A-22], the EC50 was under 10 µM.

Turning to `CCn1nc(C(F)(F)F)c(C)c1N/C(=N\C(=O)c1ccc(Cl)cc1Cl)Nc1cccc(Cl)c1` [Compound A-23], the EC50 was under 10 µM.

Consider `CCn1nc(C(F)(F)F)c(C)c1N/C(=N\C(=O)c1ccc(Cl)cc1)Nc1cc(F)cc(Cl)c1` [Compound A-24], for which the EC50 was under 10 µM.

Regarding `CCn1nc(C(F)(F)F)c(C)c1N/C(=N\C(=O)c1ccc(Cl)cc1)Nc1cccc(C(F)(F)F)c1` [Compound A-25], the EC50 is under 10 µM.

With `CCn1nc(C(F)(F)F)c(C)c1N/C(=N\C(=O)c1ccc(Cl)cc1)Nc1cccc(Cl)c1` [Compound A-26], the EC50 is under 10 µM.

On to `CCn1nc(C(F)(F)F)c(C)c1N/C(=N\C(=O)c1ccc(Cl)c(F)c1)Nc1cc(F)cc(Cl)c1` [Compound A-27], for which the EC50 was under 10 µM.

For `CCn1nc(C(F)(F)F)c(C)c1N/C(=N\C(=O)c1ccc(Cl)c(F)c1)Nc1cccc(C(F)(F)F)c1` [Compound A-28], the EC50 is under 10 µM.

With `CCn1nc(C(F)(F)F)c(C)c1N/C(=N\C(=O)c1ccc(Cl)c(F)c1)Nc1cccc(Cl)c1` [Compound A-29], the EC50 is under 10 µM.

`Cc1c(C(F)(F)F)n[nH]c1NC(=NC(=O)c1ccc(F)c(F)c1)Nc1ccc(Cl)cc1Cl` [Compound A-30]: the EC50 was under 10 µM.

Regarding `Cc1ccc(N/C(=N/C(=O)c2ccc(F)c(F)c2)Nc2[nH]nc(C(F)(F)F)c2C)c(Cl)c1` [Compound A-31], the concentration for a half-maximal effect (EC50) was under 10 µM.

As to `Cc1c(NC(=NC(=O)c2ccc(Cl)cc2Cl)Nc2ccc(Cl)cc2Cl)n[nH]c1C(F)(F)F` [Compound A-32], the EC50 was under 10 µM.

On to `Cc1ccc(NC(=NC(=O)c2ccc(Cl)cc2Cl)Nc2n[nH]c(C(F)(F)F)c2C)c(Cl)c1` [Compound A-33], for which the EC50 is under 10 µM.

`Cc1ccc(NC(=NC(=O)c2cccc(Cl)c2)Nc2n[nH]c(C(F)(F)F)c2C)c(Cl)c1` [Compound A-35]: the concentration for a half-maximal effect (EC50) was under 10 µM.

In the case of `Cc1c(NC(=NC(=O)c2ccc(Cl)cc2)Nc2cc(F)cc(Cl)c2)n[nH]c1C(F)(F)F` [Compound A-36], the EC50 was under 10 µM.

With `Cc1c(NC(=NC(=O)c2ccc(Cl)cc2)Nc2cccc(C(F)(F)F)c2)n[nH]c1C(F)(F)F` [Compound A-37], the EC50 is under 10 µM.

With `Cc1c(NC(=NC(=O)c2ccc(Cl)cc2)Nc2cccc(Cl)c2)n[nH]c1C(F)(F)F` [Compound A-38], the EC50 is under 10 µM.

Consider `Cc1c(NC(=NC(=O)c2ccc(Cl)c(F)c2)Nc2cc(F)cc(Cl)c2)n[nH]c1C(F)(F)F` [Compound A-39], for which the EC50 was under 10 µM.

In the case of `Cc1c(NC(=NC(=O)c2ccc(Cl)c(F)c2)Nc2cccc(Cl)c2)n[nH]c1C(F)(F)F` [Compound A-41], the EC50 was under 10 µM.

Regarding `Cc1c(NC(=NC(=O)c2ccc(C(F)(F)F)cc2)Nc2cccc(Cl)c2)n[nH]c1C(F)(F)F` [Compound A-42], the EC50 was under 10 µM.

Tested on in another series: not listed separately
As to the kind of experiment: Blood plasma levels after oral administration to mice. In kind it is in vivo. As to conditions: mouse, 10 mg/kg, heading: AUC0-24, oral gavage, 5 mL/Kg of 2 mg/mL lipid emulsion. The procedure: (§1) Exemplary compounds were administered orally to animals (i.e., mice or rats), and then blood samples were taken from the animal at set time points and analyzed for the amount of test compound in the blood sample. Experimental procedures and results are described below.
(§2) A lipid emulsion containing the test compound was prepared by first dissolving the test compound in 1:4 Labrafil M1944:Solutol, then adding 0.5% carboxymethylcellulose in water with vigorous stirring to achieve a final ratio of 5:20:75 Labrafil:Solutol:0.5% aqueous CMC. The concentration of test compound in the lipid emulsion was 2 mg/mL.
(§3) Animals (mice or rats) were dosed by oral gavage using 5 mL/Kg of dosing solution. Animals were serially bled from the dorsal metatarsal vein (mice) or jugular vein (rats) at 30 minutes, 1 h, 2 h, 4 h, 8 h and 24 h post-dose. Test compounds 1 and B-1 were administered to a mice. Test compounds A-1 and B-2 were administered to rats.
(§4) The desired serial concentrations of working solutions were achieved by diluting a stock solution of analyte with 60% acetonitrile in water solution. A 5 μL aliquot of working solutions at 10, 20, 50, 100, 500, 1000, 5000, and 10000 ng/mL were added to 50 μL of blank plasma to achieve calibration standards of 1-1000 ng/mL (1, 2, 5, 10, 50, 100, 500, 1000 ng/mL) in a total volume of 55 μL.
(§5) Four quality control samples at 3 ng/mL (low 1), 5 ng/mL (low 2), 50 ng/mL (medium), and 800 ng/mL (high) were prepared independently of those used for the calibration curves. These QC samples were prepared on the day of analysis in the same way as calibration standards.
(§6) 55 μL standards, 55 μL QC samples, and 55 μL unknown samples were added to 200 μL of acetonitrile for precipitating protein respectively. Then, the samples were vortexed for 30 seconds at 4 degree Celsius. After centrifugation at 4 degree Celsius (i.e., 15000 rpm for 5 min) a 20 μL aliquot of the supernatant was analyzed by LC/MS. Unknowns were compared to standards to obtain test compound concentrations for each sample.
Consider `O=C(/N=C(/Nc1cc(F)cc(Cl)c1)Nc1cc(C(F)(F)F)[nH]n1)c1ccc(F)c(F)c1` [Compound B-1, reference compound], for which the AUC(0-t) turned out to be 4530 ng·h/mL.

Staying with this series, now noted: mouse, 10 mg/kg, oral gavage, 5 mL/Kg of 2 mg/mL lipid emulsion.
As to `Cc1c(N/C(=N\C(=O)c2ccc(F)c(F)c2)Nc2cc(F)cc(Cl)c2)n[nH]c1C(F)(F)F` [Compound 1, N-(((3-Chloro-5-fluorophenyl)amino)((4-methyl-5-(trifluoromethyl)-1H-pyrazol-3-yl)amino)methylene)-3,4-difluorobenzamide], the Cmax is 1590 ng/mL.

In the case of `O=C(/N=C(/Nc1cc(F)cc(Cl)c1)Nc1cc(C(F)(F)F)[nH]n1)c1ccc(F)c(F)c1` [Compound B-1, reference compound], the peak level (Cmax) was 609 ng/mL.

The series is the same for the next values; noted with them: mouse, 10 mg/kg, oral gavage, 5 mL/Kg of 2 mg/mL lipid emulsion, read-out: AUC0-24.
Regarding `Cc1c(N/C(=N\C(=O)c2ccc(F)c(F)c2)Nc2cc(F)cc(Cl)c2)n[nH]c1C(F)(F)F` [Compound 1, N-(((3-Chloro-5-fluorophenyl)amino)((4-methyl-5-(trifluoromethyl)-1H-pyrazol-3-yl)amino)methylene)-3,4-difluorobenzamide], the AUC(0-t) turned out to be 8760 ng·h/mL.

Tested on in a further series: not listed separately
Put plainly: Blood plasma levels after oral administration to rats. In kind it is in vivo. To be noted: rat, 10 mg/kg, heading: AUC0-24, oral gavage, 5 mL/Kg of 2 mg/mL lipid emulsion. The method, then:
as §1, §2, §3, §4, §5, §6
The compound `Cc1c(N/C(=N\C(=O)c2cccc(Cl)c2)Nc2cc(F)cc(Cl)c2)n[nH]c1C(F)(F)F` [Compound A-1] yielded an AUC(0-t) of 10500 ng·h/mL.

For the compound `O=C(/N=C(/Nc1cc(F)cc(Cl)c1)Nc1cc(C(F)(F)F)[nH]n1)c1cccc(Cl)c1` [Compound B-2, reference compound], the AUC(0-t) is 5480 ng·h/mL.

Staying with this series, now noted: rat, 10 mg/kg, oral gavage, 5 mL/Kg of 2 mg/mL lipid emulsion.
Consider `Cc1c(N/C(=N\C(=O)c2cccc(Cl)c2)Nc2cc(F)cc(Cl)c2)n[nH]c1C(F)(F)F` [Compound A-1], for which the Cmax was 1440 ng/mL.

With `O=C(/N=C(/Nc1cc(F)cc(Cl)c1)Nc1cc(C(F)(F)F)[nH]n1)c1cccc(Cl)c1` [Compound B-2, reference compound], the Cmax stood at 541 ng/mL.
